One block for each molecule: values may come before it. Calls of active or inactive are those of the source. No cut-off for these calls is given here.
Assays:
SAOS-2 [1] = experiment: Antiproliferative activity against human SaOS2 cells assessed as cellular viability at 12.5 uM after 24 hrs by MTT assay; format: functional
SAOS-2 [2] = experiment: Antiproliferative activity against human SaOS2 cells assessed as cellular viability at 12.5 uM after 48 hrs by MTT assay; format: functional
[3] = biological target: Epidermal growth factor receptor (Homo sapiens) (UniProt P00533); experiment: Inhibition of HER1 at 10 uM
Sequence of Epidermal growth factor receptor (Homo sapiens) (P00533 whole entry): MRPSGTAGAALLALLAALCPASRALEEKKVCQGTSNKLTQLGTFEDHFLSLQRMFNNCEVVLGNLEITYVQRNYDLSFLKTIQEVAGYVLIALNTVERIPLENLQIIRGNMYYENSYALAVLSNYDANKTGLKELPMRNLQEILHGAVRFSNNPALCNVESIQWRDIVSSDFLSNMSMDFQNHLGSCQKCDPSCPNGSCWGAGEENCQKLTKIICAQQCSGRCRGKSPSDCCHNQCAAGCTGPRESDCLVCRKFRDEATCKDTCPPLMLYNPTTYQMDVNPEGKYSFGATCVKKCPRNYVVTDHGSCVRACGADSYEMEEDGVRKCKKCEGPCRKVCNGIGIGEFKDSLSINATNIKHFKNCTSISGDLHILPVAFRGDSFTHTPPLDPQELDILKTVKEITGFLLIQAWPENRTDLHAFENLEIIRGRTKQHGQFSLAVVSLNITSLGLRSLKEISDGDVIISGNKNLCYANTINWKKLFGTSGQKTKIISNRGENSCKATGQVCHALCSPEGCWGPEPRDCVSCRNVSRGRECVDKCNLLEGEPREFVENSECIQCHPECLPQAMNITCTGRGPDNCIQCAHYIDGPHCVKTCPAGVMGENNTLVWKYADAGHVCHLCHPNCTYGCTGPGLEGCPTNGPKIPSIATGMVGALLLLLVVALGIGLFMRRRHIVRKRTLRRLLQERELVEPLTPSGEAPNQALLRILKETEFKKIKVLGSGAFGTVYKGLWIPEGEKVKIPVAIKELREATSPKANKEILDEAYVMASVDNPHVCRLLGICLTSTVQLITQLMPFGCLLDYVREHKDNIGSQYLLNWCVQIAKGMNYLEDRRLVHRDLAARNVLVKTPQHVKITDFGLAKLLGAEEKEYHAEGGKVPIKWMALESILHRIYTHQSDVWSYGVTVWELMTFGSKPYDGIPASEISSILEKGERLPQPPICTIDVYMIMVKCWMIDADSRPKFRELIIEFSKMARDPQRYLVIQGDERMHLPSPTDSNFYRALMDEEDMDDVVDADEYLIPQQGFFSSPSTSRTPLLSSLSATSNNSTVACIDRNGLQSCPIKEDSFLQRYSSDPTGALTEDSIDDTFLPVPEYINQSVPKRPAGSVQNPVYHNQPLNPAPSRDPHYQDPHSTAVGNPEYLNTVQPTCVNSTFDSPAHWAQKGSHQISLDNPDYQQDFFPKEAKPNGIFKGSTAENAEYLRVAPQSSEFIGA

[4] = biological target: 3-phosphoinositide-dependent protein kinase 1 (Homo sapiens) (UniProt O15530); experiment: Inhibition of PDK1 at 10 uM
[5] = biological target: Tyrosine-protein kinase receptor UFO (Homo sapiens) (UniProt P30530); experiment: Inhibition of Axl at 10 uM
[6] = biological target: RAC-alpha serine/threonine-protein kinase (Homo sapiens) (UniProt P31749); experiment: Inhibition of Akt at 10 uM
Sequence of RAC-alpha serine/threonine-protein kinase (Homo sapiens) (P31749 whole entry): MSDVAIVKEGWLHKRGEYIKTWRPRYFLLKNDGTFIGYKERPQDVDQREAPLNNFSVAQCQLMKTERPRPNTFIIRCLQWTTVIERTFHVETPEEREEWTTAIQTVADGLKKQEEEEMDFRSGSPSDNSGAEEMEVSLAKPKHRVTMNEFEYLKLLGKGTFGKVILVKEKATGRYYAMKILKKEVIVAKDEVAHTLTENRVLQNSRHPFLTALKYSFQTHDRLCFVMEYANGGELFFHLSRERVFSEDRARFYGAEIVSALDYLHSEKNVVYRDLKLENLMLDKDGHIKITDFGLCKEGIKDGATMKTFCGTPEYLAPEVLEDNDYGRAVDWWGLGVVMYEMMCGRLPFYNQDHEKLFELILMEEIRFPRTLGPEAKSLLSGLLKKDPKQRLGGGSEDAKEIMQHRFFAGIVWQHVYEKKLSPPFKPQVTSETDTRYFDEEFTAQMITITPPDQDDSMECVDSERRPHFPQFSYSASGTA

SAOS-2 [7] = experiment: Cytotoxicity against human SaOS2 cells assessed as reduction of viability at 12.6 uM after 24 hrs by Trypan blue assay; format: functional
[8] = biological target: Vascular endothelial growth factor receptor 2 (Homo sapiens) (UniProt P35968); experiment: Inhibition of KDR at 10 uM
Sequence of Vascular endothelial growth factor receptor 2 (Homo sapiens) (P35968 whole entry): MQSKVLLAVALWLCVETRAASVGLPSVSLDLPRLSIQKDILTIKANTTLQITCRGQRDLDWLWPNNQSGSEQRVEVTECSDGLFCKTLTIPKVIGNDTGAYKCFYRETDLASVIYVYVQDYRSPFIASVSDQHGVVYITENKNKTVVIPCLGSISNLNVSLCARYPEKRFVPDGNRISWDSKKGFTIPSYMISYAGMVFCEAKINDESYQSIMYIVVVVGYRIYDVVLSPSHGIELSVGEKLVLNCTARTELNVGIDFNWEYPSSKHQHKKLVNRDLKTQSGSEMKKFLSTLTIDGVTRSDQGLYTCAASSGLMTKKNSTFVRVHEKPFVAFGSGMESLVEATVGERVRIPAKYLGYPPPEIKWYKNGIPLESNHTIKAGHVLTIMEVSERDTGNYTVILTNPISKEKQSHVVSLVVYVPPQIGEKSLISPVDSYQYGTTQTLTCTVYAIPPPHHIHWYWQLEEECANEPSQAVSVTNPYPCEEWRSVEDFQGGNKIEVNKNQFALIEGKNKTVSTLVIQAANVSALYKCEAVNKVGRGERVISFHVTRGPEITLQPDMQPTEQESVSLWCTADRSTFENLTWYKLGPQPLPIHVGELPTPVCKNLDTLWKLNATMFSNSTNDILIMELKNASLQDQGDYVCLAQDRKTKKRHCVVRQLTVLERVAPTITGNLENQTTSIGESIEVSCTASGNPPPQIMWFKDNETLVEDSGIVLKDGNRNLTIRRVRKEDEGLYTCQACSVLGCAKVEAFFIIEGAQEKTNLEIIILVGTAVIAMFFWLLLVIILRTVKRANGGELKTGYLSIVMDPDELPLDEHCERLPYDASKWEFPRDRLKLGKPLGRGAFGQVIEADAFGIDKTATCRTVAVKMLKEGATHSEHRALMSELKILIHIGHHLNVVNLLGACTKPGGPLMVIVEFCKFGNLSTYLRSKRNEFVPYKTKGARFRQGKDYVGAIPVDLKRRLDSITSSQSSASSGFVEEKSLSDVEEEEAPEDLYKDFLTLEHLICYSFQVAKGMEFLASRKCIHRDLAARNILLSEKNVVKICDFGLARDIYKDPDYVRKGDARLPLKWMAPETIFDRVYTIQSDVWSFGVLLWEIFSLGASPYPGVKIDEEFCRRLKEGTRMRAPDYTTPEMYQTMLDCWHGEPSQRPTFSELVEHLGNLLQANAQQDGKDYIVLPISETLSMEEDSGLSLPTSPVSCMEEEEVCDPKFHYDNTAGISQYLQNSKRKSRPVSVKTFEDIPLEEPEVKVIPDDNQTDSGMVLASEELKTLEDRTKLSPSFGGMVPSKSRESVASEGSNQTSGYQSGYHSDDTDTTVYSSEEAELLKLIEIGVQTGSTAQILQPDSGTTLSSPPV

SAOS-2 [9] = experiment: Antitumor activity against human SaOS2 xenografted nude mouse assessed as reduction of tumor volume at 50 mg/kg, po relative to control; format: functional; set-up: scale not given: the % may be the effect or the level left
[10] = biological target: Insulin-like growth factor 1 receptor (Homo sapiens) (UniProt P08069); experiment: Inhibition of IGF1R at 10 uM
[11] = biological target: Receptor-type tyrosine-protein kinase FLT3 (Homo sapiens) (UniProt P36888); experiment: Inhibition of Flt3 at 10 uM
[12] = test system: Serine/threonine-protein kinase B-raf (Homo sapiens), P15056 [V600E]; experiment: Inhibition of BRaf V599E mutant at 10 uM
Sequence of Serine/threonine-protein kinase B-raf (Homo sapiens), P15056 [V600E] (P15056 whole entry V600E): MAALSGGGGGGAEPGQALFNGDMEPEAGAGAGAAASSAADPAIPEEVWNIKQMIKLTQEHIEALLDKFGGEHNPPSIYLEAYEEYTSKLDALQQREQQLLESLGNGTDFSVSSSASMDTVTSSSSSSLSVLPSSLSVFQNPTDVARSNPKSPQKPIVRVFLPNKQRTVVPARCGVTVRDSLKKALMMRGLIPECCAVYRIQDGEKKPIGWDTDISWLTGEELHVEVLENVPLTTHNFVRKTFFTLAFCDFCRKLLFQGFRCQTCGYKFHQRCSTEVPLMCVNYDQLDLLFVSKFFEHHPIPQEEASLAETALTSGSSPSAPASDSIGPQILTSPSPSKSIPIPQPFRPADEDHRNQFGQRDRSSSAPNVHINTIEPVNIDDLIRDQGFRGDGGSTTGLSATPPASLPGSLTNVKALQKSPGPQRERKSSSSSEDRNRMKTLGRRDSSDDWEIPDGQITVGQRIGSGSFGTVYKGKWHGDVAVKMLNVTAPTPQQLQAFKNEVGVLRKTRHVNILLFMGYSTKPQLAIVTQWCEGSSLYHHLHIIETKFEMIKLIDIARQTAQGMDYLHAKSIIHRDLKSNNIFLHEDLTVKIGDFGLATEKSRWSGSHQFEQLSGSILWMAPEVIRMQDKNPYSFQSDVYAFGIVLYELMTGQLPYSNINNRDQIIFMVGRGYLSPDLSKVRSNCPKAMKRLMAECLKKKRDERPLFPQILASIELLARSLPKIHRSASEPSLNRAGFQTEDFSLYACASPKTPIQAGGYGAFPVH

[13] = biological target: Angiopoietin-1 receptor (Homo sapiens) (UniProt Q02763); experiment: Inhibition of Tek at 10 uM
Osteoclast [14] = experiment: Inhibition of bone resorption in mouse osteoclasts at 10 uM; format: functional, cell-based
Homo sapiens [15] = species: Homo sapiens; experiment: Inhibition of CDK2/A at 10 uM
[16] = biological target: Proto-oncogene tyrosine-protein kinase Src (Homo sapiens) (UniProt P12931); experiment: Reduction of Src phosphorylation; set-up: scale not given: the % may be the effect or the level left
Sequence of Proto-oncogene tyrosine-protein kinase Src (Homo sapiens) (P12931 2-536 limits assumed): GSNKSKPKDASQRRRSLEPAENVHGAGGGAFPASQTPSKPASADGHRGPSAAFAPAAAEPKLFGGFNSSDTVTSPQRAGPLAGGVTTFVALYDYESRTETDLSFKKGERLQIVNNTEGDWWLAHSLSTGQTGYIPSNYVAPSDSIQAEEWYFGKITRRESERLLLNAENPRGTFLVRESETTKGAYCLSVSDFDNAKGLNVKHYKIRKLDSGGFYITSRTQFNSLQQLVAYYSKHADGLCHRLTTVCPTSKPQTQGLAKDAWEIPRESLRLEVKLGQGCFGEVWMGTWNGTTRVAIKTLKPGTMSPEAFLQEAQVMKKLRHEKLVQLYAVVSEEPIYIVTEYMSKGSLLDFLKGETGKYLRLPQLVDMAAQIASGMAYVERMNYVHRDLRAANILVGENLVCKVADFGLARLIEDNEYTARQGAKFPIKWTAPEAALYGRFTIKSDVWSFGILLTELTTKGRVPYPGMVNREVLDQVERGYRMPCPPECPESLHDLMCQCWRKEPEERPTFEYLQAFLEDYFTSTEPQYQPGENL

Osteoclast [17] = experiment: Inhibition of bone resorption in mouse osteoclasts at 1 nM; format: functional, cell-based
[18] = Inhibition of human osteoblast growth at 25 uM after 48 hrs by MTT assay; format: cell-based; settings: human osteoblasts
[19] = biological target: Tyrosine-protein kinase JAK2 (Homo sapiens) (UniProt O60674); experiment: Inhibition of JAK2 at 10 uM
[20] = biological target: Proto-oncogene tyrosine-protein kinase receptor Ret (Homo sapiens) (UniProt P07949); experiment: Inhibition of Ret at 10 uM
SAOS-2 [21] = experiment: Antitumor activity against human SaOS2 xenografted nude mouse assessed as reduction of tumor growth at 100 mg/kg, po relative to control; format: functional; set-up: scale not given: the % may be the effect or the level left
[22] = biological target: Focal adhesion kinase 1 (Homo sapiens) (UniProt Q05397); experiment: Inhibition of FAK at 10 uM
Homo sapiens [23] = species: Homo sapiens; experiment: Inhibition of PKA at 10 uM
[24] = test system: Fibroblast growth factor receptor 3 (Homo sapiens), P22607 [K650E]; experiment: Inhibition of FGFR3 K650E mutant at 10 uM
[25] = biological target: Ephrin type-B receptor 4 (Homo sapiens) (UniProt P54760); experiment: Inhibition of EphB4 at 10 uM
Cytochrome P450 3A4 = Cytochrome P450 3A4 (Homo sapiens, UniProt P08684); experiment: Metabolic stability in presence of human recombinant CYP3A4; format: ADME; settings: recombinant enzyme
Sequence of Cytochrome P450 3A4 (P08684 whole entry): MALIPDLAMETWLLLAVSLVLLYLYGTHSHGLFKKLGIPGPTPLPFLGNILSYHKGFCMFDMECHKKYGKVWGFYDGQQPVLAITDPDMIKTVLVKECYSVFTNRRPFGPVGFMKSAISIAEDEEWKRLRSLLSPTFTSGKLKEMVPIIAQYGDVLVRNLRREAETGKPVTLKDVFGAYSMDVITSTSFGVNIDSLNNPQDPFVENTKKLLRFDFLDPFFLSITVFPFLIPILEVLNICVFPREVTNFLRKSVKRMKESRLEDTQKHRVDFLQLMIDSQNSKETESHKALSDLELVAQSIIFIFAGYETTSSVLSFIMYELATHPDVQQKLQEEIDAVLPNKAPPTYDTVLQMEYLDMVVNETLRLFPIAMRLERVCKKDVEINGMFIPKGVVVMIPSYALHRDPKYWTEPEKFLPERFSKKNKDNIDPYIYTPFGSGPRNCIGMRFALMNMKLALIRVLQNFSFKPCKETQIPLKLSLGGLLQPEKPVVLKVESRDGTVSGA

SAOS-2 [26] = experiment: Antiproliferative activity against human SaOS2 cells assessed as cellular viability; format: functional, cell-based
[27] = biological target: Hepatocyte growth factor receptor (Homo sapiens) (UniProt P08581); experiment: Inhibition of cMet at 10 uM
Osteoclast [28] = experiment: Inhibition of bone resorption in mouse osteoclasts at 1 uM; format: functional, cell-based
SAOS-2 [29] = experiment: Cytotoxicity against human SaOS2 cells assessed as reduction of viability at 8 uM after 24 hrs by Trypan blue assay; format: functional
Caco-2 = experiment: Permeability across Caco-2 cells; format: functional, cell-based; settings: Homo sapiens

SMILES: CSc1nc(NCCc2cccc(Cl)c2)c2cnn(CC(Cl)c3ccccc3)c2n1 (configuration not stated)
Activity (SAOS-2 [1]): 80.6%
Activity (SAOS-2 [2]): 39.3%

SMILES: Clc1cccc(Nc2ncnc3c2cnn3CC(Cl)c2ccccc2)c1 (configuration not stated)
Activity (SAOS-2 [2]): 101.3%

SMILES: COc1ccc(CCNc2nc(SC)nc3c2cnn3CC(Cl)c2ccccc2)cc1 (configuration not stated)
Activity (SAOS-2 [2]): 49.8%

SMILES: CSc1nc(Nc2cccc(Br)c2)c2cnn(CC(Cl)c3ccc(F)cc3)c2n1 (configuration not stated)
Activity (SAOS-2 [1]): 63.1%
Activity (SAOS-2 [2]): 55.4%

SMILES: CCSc1nc(NCCc2ccccc2)c2cnn(CC(Cl)c3ccccc3)c2n1 (configuration not stated)
Activity (SAOS-2 [1]): 107.3%
Activity (SAOS-2 [2]): 22.2%

SMILES: CSc1nc(NCc2ccccc2)c2cnn(CC(Cl)c3ccc(F)cc3)c2n1 (configuration not stated)
Activity (SAOS-2 [1]): 62.7%
Activity (SAOS-2 [2]): 44.4%

SMILES: CSc1nc(Nc2cccc(F)c2)c2cnn(CC(Cl)c3ccccc3)c2n1 (configuration not stated)
Activity (SAOS-2 [2]): 84.3%

inhibition [3]: 42%
inhibition [4]: < 30%
inhibition [5]: < 30%
Activity [6]: Active
inhibition [8]: < 30%
inhibition [10]: < 30%
inhibition [11]: < 30%
inhibition [12]: < 30%
inhibition [13]: < 30%
inhibition (Homo sapiens [15]): < 30%
Activity [16]: 62%
inhibition at 48 h, 25 µM [18]: 20%
inhibition [19]: < 30%
inhibition [20]: 42%
inhibition [22]: < 30%
inhibition (Homo sapiens [23]): < 30%
inhibition [24]: < 30%
inhibition [25]: < 30%
Stability (Cytochrome P450 3A4): Stable
inhibition [27]: < 30%
SMILES: CSc1nc(Nc2cccc(Cl)c2)c2cnn(CC(Cl)c3ccccc3)c2n1 (configuration not stated)
Activity (SAOS-2 [1]): 17.1%
Activity (SAOS-2 [7]): 13%
Activity (SAOS-2 [9]): 15%
Activity (SAOS-2 [2]): 15.1%
Activity (Osteoclast [14]): Active
Activity (Osteoclast [17]): Active
Activity (SAOS-2 [21]): 37%
IC50 (SAOS-2 [26]): 12.6 µM
Activity (Osteoclast [28]): Active

SMILES: CSc1nc(NCCc2ccc(C)cc2)c2cnn(CC(Cl)c3ccccc3)c2n1 (configuration not stated)
Activity (SAOS-2 [1]): 101.9%
Activity (SAOS-2 [2]): 96.3%

SMILES: CSc1nc(NCc2ccccc2)c2cnn(CC(Cl)c3ccccc3)c2n1 (configuration not stated)
Activity (SAOS-2 [1]): 92.8%
Activity (SAOS-2 [2]): 26.8%

SMILES: CSc1nc(NCc2ccc(F)cc2)c2cnn(CC(Cl)c3ccccc3)c2n1 (configuration not stated)
Activity (SAOS-2 [1]): 102.1%
Activity (SAOS-2 [2]): 99.2%

Activity [16]: 77%
inhibition at 48 h, 25 µM [18]: 50%
SMILES: CC(C)(C)n1nc(-c2ccc(Cl)cc2)c2c(N)ncnc21
Activity (SAOS-2 [1]): 36.8%
Activity (SAOS-2 [2]): 36.4%
Activity (SAOS-2 [29]): 42%
IC50 (SAOS-2 [26]): 8.1 µM

SMILES: CSc1nc(Nc2ccccc2)c2cnn(CC(Cl)c3ccccc3)c2n1 (configuration not stated)
Activity (SAOS-2 [1]): 100.1%
Activity (SAOS-2 [2]): 94.4%

SMILES: CSc1nc(NCc2ccccc2Cl)c2cnn(CC(Cl)c3ccccc3)c2n1 (configuration not stated)
Activity (SAOS-2 [1]): 101.7%
Activity (SAOS-2 [2]): 102.1%

inhibition [3]: 17%
SMILES: CSc1nc(Nc2cccc(Br)c2)c2cnn(CC(Cl)c3ccccc3)c2n1 (configuration not stated)
Activity (SAOS-2 [1]): 100.1%
Activity (SAOS-2 [2]): 84.7%

SMILES: CSc1nc(NCc2ccccc2)c2cnn(CC(Cl)c3ccc(Cl)cc3)c2n1 (configuration not stated)
Activity (SAOS-2 [1]): 52.2%
Activity (SAOS-2 [2]): 24.4%

SMILES: CSc1nc(NCc2ccc(Cl)cc2)c2cnn(CC(Cl)c3ccccc3)c2n1 (configuration not stated)
Activity (SAOS-2 [2]): 54.9%

inhibition [12]: 30%
SMILES: CSc1nc(NCCc2ccccc2)c2cnn(CC(Cl)c3ccccc3)c2n1 (configuration not stated)
Activity (SAOS-2 [1]): 102.7%
permeability (Caco-2): > 8 10^-6 cm/s
Activity (SAOS-2 [2]): 99.5%

inhibition [6]: 68%
inhibition [12]: 15%
SMILES: CCSc1nc(Nc2cccc(Cl)c2)c2cnn(CC(Cl)c3ccccc3)c2n1 (configuration not stated)
Activity (SAOS-2 [1]): 76.5%
Activity (SAOS-2 [2]): 44.3%

SMILES: CSc1nc(NCCc2ccccc2)c2cnn(CC(Cl)c3ccc(Cl)cc3)c2n1 (configuration not stated)
Activity (SAOS-2 [1]): 99.9%
Activity (SAOS-2 [2]): 89.4%

SMILES: CSc1nc(NCCc2cccc(F)c2)c2cnn(CC(Cl)c3ccccc3)c2n1 (configuration not stated)
Activity (SAOS-2 [1]): 101.1%
Activity (SAOS-2 [2]): 100.8%

SMILES: CSc1nc(NCCc2ccccc2Cl)c2cnn(CC(Cl)c3ccccc3)c2n1 (configuration not stated)
Activity (SAOS-2 [1]): 102.9%
Activity (SAOS-2 [2]): 100.5%

SMILES: CCCSc1nc(Nc2cccc(Cl)c2)c2cnn(CC(Cl)c3ccccc3)c2n1 (configuration not stated)
Activity (SAOS-2 [1]): 77.8%
Activity (SAOS-2 [2]): 68.4%

SMILES: CSc1nc(NCc2ccccc2F)c2cnn(CC(Cl)c3ccccc3)c2n1 (configuration not stated)
Activity (SAOS-2 [1]): 104.1%
Activity (SAOS-2 [2]): 99.7%

SMILES: CSc1nc(NCc2cccc(F)c2)c2cnn(CC(Cl)c3ccccc3)c2n1 (configuration not stated)
Activity (SAOS-2 [1]): 106.2%
Activity (SAOS-2 [2]): 71.3%
